Article PMC10079235 (PLOS Neglected Tropical Diseases, 2023)
Structures can show the parent of a compound that is named as a salt. Where two headings read alike, the source gives them in different places.

Key:
HCT-8/MDR1 cells = experiment: MTS cytotoxicity (drug tolerance) assay; details: for TC50: MDR1 cells, no drug selection, MTS assay
HCT-8/WT(PTX) cells = experiment: MTS cytotoxicity (drug tolerance) assay
Method: (§1) Host cell drug tolerance to specified inhibitors was evaluated by 3-(4,5-dimethylthiazol-2-yl)-5-(3-carboxymethoxyphenyl)-2-(4-sulfophenyl)-2H-tetrazolium (MTS) assay. WT and transgenic host cells were seeded in 96-well plates (10,000 cells/well) and cultured for 24 h, followed by the addition of specified compounds at serially diluted concentrations and continued culture for 41 h. After 3 washes with serum-free medium, MTS solution (Saint-Bio, Shanghai, China) was added into the plates (20 μL/well) and incubated at 37°C for 2 h. Optical density at 490 nm (OD490) was measured using a Synergy LX multi-mode reader (BioTek, Winooski, VT). Drug tolerance was indicated by half-maximal cytotoxic concentrations (TC50 values) calculated by nonlinear regression using 4PL model. Selectivity index (SI) for each compound was determined by the ratio between TC50 and EC50 values (SI = TC50/EC50).
(§2) Surviving cells were allowed to recover in drug-free medium for 3–5 d to near confluence (round 1). The selection/recovery cycle were repeated once (round 2). […] The resulting cell lines after PTX or NTZ selection were designated as WT(PTX), NC(PTX) and MDR1(PTX), or WT(NTZ), NC(NTZ) and MDR1(NTZ), respectively (Tables 1 and S2).

HCT-8/WT cells = experiment: MTS cytotoxicity (drug tolerance) assay; details: WT cells, no drug selection; MTS assay
Method: as §1

HCT-8/NC cells [1] = experiment: MTS cytotoxicity (drug tolerance) assay; details: no drug selection
HCT-8/WT(NTZ) cells = experiment: MTS cytotoxicity (drug tolerance) assay
Method: as §1
(§3) Surviving cells were allowed to recover in drug-free medium for 3–5 d to near confluence (round 1). The selection/recovery cycle were repeated once (round 2). […] Finally, all cells were cultured at the final selection concentrations of PTX or NTZ for ≥7 d, followed by culture in drug-free medium for 14 d. At this time point, cells were used for cytotoxicity and efficacy assays or cryopreserved in a liquid nitrogen tank. The resulting cell lines after PTX or NTZ selection were designated as WT(PTX), NC(PTX) and MDR1(PTX), or WT(NTZ), NC(NTZ) and MDR1(NTZ), respectively (Tables 1 and S2).

HCT-8/NC(NTZ) cells = experiment: MTS cytotoxicity (drug tolerance) assay
Method: as §1, §3

Cryptosporidium parvum = experiment: Anti-cryptosporidial efficacy assay (44-h infection/qRT-PCR); details: for EC50: Cryptosporidium parvum; for On-target (Eon) rate at EC50: Eq 2; for Eoff, proportion of off-parasite-target effect / Eon, proportion of on-parasite-target effect: MDR1(PTX) vs. NC model, Eq 3 and 4
HCT-8/NC(PTX) cells = experiment: MTS cytotoxicity (drug tolerance) assay
Method: as §1, §2

HCT-8/MDR1(NTZ) cells = experiment: MTS cytotoxicity (drug tolerance) assay
Method: as §1, §2

HCT-8/MDR1(PTX) cells = details: for Pct change of TC50 (vs NC): MDR1(PTX) vs NC cells
Method: as §1, §2

HCT-8/NC cells [2] = details: human, 41 h
[3] = after selection by PTX vs parent cell line
[4] = after selection by NTZ vs parent cell line

SMILES: CN(C)C(=O)C(CCN1CCC(O)(c2ccc(Cl)cc2)CC1)(c1ccccc1)c1ccccc1 [Loperamide, Loperamide HCl]
- TC50 (HCT-8/MDR1 cells): 16.49 µM
- TC50 (HCT-8/WT(PTX) cells; WT(PTX) cells, after selection by PTX): 16.42 µM
- TC50 (HCT-8/WT cells): 15.96 µM
- TC50 (HCT-8/NC cells [1]): 16.08 µM
- TC50 (HCT-8/WT(NTZ) cells; WT(NTZ) cells, after selection by NTZ): 16.23 µM
- TC50 (HCT-8/NC(NTZ) cells; NC(NTZ) cells, after selection by NTZ): 15.64 µM

SMILES: O=C1c2c(O)ccc(O)c2C(=O)c2c(NCCNCCO)ccc(NCCNCCO)c21 [Mitoxantrone, Mitoxantrone 2HCl]
- TC50 (HCT-8/MDR1 cells): 6.79 µM
- Fold change of TC50 MDR1/NC (HCT-8/MDR1 cells; ratio of TC50, MDR1 vs NC cells): 1.65
- EC50 (Cryptosporidium parvum; MDR1, read-out: Antiparasitic efficacy (EC50), C. parvum cultured in MDR1(PTX) host cells): 4.16 µM
- EC50 (Cryptosporidium parvum; read-out: Antiparasitic efficacy (EC50), C. parvum cultured in NC host cells): 2.04 µM
- EC50 (Cryptosporidium parvum; read-out: Antiparasitic efficacy (EC50), C. parvum cultured in WT host cells): 2.07 µM
- On-target (Eon) rate at EC50 (Cryptosporidium parvum; MDR1(PTX) cell model): 39.8%
- On-target (Eon) rate at EC50 (Cryptosporidium parvum; MDR1(PTX) cell model, listed as MXT): 39.8%
- Off-target (Eoff) rate at EC50 (Cryptosporidium parvum; MDR1(PTX) cell model, from Pct changes of EC50 and TC50 (Eq 1)): 60.2%
- Action on parasite target (on-target) conclusion (Cryptosporidium parvum; MDR1-transgenic host cell model): partially on-target
- Selectivity index (SI) (Cryptosporidium parvum; TC50/EC50 in MDR1(PTX) cells): 2.69
- Selectivity index (SI) (Cryptosporidium parvum; TC50/EC50 in NC cells): 2.01
- Selectivity index (SI, k) (Cryptosporidium parvum; TC50/EC50 in WT cells): 2.08
- Eoff, proportion of off-parasite-target effect (Cryptosporidium parvum; at EC10): 39.80%
- Eon, proportion of on-parasite-target effect (Cryptosporidium parvum; at EC10): 60.20%
- Eoff, proportion of off-parasite-target effect (Cryptosporidium parvum; at EC20): 47.10%
- Eon, proportion of on-parasite-target effect (Cryptosporidium parvum; at EC20): 52.90%
- Eoff, proportion of off-parasite-target effect (Cryptosporidium parvum; at EC30): 52.00%
- Eon, proportion of on-parasite-target effect (Cryptosporidium parvum; at EC30): 48.00%
- Eoff, proportion of off-parasite-target effect (Cryptosporidium parvum; at EC40): 56.10%
- Eon, proportion of on-parasite-target effect (Cryptosporidium parvum; at EC40): 43.90%
- Eoff, proportion of off-parasite-target effect (Cryptosporidium parvum; at EC50): 60.0%
- Eon, proportion of on-parasite-target effect (Cryptosporidium parvum; at EC50): 40.0%
- Eoff, proportion of off-parasite-target effect (Cryptosporidium parvum; at EC60): 63.90%
- Eon, proportion of on-parasite-target effect (Cryptosporidium parvum; at EC60): 36.10%
- Eoff, proportion of off-parasite-target effect (Cryptosporidium parvum; at EC70): 68.20%
- Eon, proportion of on-parasite-target effect (Cryptosporidium parvum; at EC70): 31.80%
- Eoff, proportion of off-parasite-target effect (Cryptosporidium parvum; at EC80): 73.60%
- Eon, proportion of on-parasite-target effect (Cryptosporidium parvum; at EC80): 26.40%
- Eoff, proportion of off-parasite-target effect (Cryptosporidium parvum; at EC90): 81.90%
- Eon, proportion of on-parasite-target effect (Cryptosporidium parvum; at EC90): 18.10%
- Fold change of TC50 WT(PTX) vs. WT (HCT-8/WT(PTX) cells; [3]): 0.98
- TC50 (HCT-8/WT(PTX) cells; human, 41 h): 4.23 µM
- Fold change of TC50 NC(PTX) vs. NC (HCT-8/NC(PTX) cells; [3]): 1.06
- TC50 (HCT-8/NC(PTX) cells; human, 41 h): 4.34 µM
- TC50 (HCT-8/MDR1(NTZ) cells; MDR1(NTZ) cells, after selection by NTZ): 6.74 µM
- Fold increase of TC50 MDR1(NTZ) vs. NC (HCT-8/MDR1(NTZ) cells; after selection by NTZ): 1.64
- Fold increase of TC50 MDR1(NTZ) vs. MDR1 (HCT-8/MDR1(NTZ) cells; [4]): 0.99
- TC50 (HCT-8/WT cells): 4.31 µM
- TC50 (HCT-8/MDR1(PTX) cells; MDR1(PTX) cells, after selection by PTX): 11.21 µM
- Pct change of TC50 (vs NC) (HCT-8/MDR1(PTX) cells): 172.7%
- Pct change of TC50 (vs NC) (HCT-8/MDR1(PTX) cells; listed as MXT): 172.7%
- Fold change of TC50 MDR1(PTX) vs. NC (HCT-8/MDR1(PTX) cells; after selection by PTX): 2.73
- Fold change of TC50 MDR1(PTX) vs. MDR1 (HCT-8/MDR1(PTX) cells; [3]): 1.65
- Fold change of TC50 MDR1(PTX)/NC(PTX) (HCT-8/MDR1(PTX) cells; ratio of TC50): 2.58
- Fold increase of TC50 WT(NTZ) vs. WT (HCT-8/WT(NTZ) cells; [4]): 0.96
- TC50 (HCT-8/WT(NTZ) cells; human, 41 h): 4.15 µM
- Fold increase of TC50 NC(NTZ) vs. NC (HCT-8/NC(NTZ) cells; [4]): 1.02
- TC50 (HCT-8/NC(NTZ) cells; human, 41 h): 4.19 µM
- TC50 (HCT-8/NC cells [2]): 4.11 µM
